Measured values: ChEMBL document CHEMBL4507328, “Data for DCP probe BAY-390” (2021)

Columns and labels:
[1] = biological target: 5-hydroxytryptamine receptor 5A (Homo sapiens) (UniProt P47898); conditions: Compound concentration 10.0 uM
[2] = biological target: Sodium-dependent dopamine transporter (Homo sapiens, UniProt Q01959); conditions: Compound concentration 10.0 uM
[3] = biological target: Histamine H4 receptor (Homo sapiens) (UniProt Q9H3N8); conditions: Compound concentration 10.0 uM
[4] = biological target: T1, Alpha-1A adrenergic receptor (Homo sapiens) (UniProt P35348); conditions: Rattus norvegicus; Compound concentration 10.0 uM
T1 sequence (whole entry): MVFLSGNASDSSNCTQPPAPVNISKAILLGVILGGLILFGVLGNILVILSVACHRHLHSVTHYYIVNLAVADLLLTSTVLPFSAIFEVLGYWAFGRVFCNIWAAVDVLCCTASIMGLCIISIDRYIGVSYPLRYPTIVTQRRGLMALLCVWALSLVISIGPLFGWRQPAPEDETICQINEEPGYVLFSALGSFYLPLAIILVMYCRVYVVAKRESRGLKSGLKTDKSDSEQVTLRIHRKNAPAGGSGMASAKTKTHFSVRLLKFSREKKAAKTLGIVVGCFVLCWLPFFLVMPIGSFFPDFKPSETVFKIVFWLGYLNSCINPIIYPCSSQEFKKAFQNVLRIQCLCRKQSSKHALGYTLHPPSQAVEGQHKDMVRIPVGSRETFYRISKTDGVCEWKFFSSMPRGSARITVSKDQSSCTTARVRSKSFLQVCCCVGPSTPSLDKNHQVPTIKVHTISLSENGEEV

[5] = biological target: Histamine H3 receptor (Homo sapiens) (UniProt Q9Y5N1); conditions: Compound concentration 10.0 uM
Chain of Histamine H3 receptor (Homo sapiens) (Q9Y5N1 whole entry): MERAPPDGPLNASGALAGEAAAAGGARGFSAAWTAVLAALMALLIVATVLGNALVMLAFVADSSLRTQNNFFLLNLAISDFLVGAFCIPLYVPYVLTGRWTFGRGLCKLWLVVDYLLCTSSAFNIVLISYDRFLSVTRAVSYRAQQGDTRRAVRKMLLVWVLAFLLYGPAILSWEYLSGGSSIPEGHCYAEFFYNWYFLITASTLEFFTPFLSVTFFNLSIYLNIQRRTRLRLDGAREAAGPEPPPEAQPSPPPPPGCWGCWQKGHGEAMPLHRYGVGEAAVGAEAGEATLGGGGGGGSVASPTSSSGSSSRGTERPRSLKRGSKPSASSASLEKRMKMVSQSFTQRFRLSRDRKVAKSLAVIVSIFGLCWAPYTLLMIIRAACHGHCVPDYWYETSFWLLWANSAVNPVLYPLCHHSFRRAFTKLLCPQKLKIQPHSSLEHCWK

[6] = biological target: T2, Muscarinic acetylcholine receptor M2 (Homo sapiens) (UniProt P08172); conditions: Compound concentration 10.0 uM
T2 sequence (whole entry): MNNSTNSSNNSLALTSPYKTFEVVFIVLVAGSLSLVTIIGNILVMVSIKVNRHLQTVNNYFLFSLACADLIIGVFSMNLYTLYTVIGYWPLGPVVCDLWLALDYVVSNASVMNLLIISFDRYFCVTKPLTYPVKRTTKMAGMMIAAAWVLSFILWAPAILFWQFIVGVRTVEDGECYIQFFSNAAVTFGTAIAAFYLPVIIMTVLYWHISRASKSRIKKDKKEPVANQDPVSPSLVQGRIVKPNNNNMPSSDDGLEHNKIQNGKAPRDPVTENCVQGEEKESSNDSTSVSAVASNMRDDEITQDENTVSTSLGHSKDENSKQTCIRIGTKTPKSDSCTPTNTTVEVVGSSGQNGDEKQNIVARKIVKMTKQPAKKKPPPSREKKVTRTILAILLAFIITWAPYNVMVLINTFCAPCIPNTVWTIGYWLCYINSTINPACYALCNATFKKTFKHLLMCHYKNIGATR

[7] = biological target: Glucocorticoid receptor (Homo sapiens) (UniProt P04150); conditions: Compound concentration 10.0 uM
Chain of Glucocorticoid receptor (Homo sapiens) (P04150 whole entry): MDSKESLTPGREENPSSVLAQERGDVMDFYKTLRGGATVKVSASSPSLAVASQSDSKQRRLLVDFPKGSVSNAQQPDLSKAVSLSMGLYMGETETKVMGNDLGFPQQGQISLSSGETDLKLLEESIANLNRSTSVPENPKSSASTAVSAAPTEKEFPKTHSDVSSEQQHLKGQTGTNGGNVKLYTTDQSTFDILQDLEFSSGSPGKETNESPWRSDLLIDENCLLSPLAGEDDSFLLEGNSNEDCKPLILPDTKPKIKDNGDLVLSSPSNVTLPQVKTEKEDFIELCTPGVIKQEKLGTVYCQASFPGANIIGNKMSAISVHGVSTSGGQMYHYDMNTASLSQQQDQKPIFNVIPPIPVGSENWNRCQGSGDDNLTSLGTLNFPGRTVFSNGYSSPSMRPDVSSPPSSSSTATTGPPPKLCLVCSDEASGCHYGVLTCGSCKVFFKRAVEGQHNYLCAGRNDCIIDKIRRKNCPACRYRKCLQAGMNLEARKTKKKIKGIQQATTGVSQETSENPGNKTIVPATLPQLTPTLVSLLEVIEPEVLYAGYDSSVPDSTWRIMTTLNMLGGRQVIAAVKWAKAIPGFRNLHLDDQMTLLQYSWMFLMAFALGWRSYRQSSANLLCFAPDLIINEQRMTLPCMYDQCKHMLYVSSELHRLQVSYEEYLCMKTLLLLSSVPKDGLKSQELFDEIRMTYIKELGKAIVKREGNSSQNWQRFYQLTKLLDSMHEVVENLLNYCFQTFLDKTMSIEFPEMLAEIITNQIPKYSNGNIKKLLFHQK

[8] = biological target: Vasopressin V1a receptor (Homo sapiens) (UniProt P37288); conditions: Compound concentration 10.0 uM
Chain of Vasopressin V1a receptor (Homo sapiens) (P37288 whole entry, looked up): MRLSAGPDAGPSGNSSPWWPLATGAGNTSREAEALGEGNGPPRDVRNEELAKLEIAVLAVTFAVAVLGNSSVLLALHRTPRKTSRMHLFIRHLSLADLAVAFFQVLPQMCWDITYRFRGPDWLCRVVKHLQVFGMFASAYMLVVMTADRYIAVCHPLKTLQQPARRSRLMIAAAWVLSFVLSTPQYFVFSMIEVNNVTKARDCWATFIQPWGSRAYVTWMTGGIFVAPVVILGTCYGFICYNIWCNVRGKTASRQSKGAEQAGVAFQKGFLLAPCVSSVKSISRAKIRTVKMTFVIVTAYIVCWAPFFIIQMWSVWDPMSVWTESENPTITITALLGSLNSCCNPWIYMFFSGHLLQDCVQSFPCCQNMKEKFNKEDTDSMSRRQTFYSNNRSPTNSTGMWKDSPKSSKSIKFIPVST

[9] = biological target: Cannabinoid receptor 2 (Homo sapiens) (UniProt P34972); conditions: Compound concentration 10.0 uM
Chain of Cannabinoid receptor 2 (Homo sapiens) (P34972 whole entry): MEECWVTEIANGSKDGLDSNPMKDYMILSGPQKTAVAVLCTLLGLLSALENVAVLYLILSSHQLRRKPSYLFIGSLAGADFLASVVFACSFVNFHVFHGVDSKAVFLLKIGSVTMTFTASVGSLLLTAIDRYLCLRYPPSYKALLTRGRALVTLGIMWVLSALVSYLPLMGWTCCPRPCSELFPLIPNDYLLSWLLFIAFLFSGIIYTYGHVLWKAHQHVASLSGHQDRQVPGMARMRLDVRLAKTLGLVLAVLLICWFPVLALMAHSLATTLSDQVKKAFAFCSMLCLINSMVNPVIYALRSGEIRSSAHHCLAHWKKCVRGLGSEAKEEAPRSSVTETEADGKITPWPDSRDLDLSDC

[10] = biological target: Progesterone receptor (Homo sapiens) (UniProt P06401); conditions: Compound concentration 10.0 uM
Chain of Progesterone receptor (Homo sapiens) (P06401 whole entry): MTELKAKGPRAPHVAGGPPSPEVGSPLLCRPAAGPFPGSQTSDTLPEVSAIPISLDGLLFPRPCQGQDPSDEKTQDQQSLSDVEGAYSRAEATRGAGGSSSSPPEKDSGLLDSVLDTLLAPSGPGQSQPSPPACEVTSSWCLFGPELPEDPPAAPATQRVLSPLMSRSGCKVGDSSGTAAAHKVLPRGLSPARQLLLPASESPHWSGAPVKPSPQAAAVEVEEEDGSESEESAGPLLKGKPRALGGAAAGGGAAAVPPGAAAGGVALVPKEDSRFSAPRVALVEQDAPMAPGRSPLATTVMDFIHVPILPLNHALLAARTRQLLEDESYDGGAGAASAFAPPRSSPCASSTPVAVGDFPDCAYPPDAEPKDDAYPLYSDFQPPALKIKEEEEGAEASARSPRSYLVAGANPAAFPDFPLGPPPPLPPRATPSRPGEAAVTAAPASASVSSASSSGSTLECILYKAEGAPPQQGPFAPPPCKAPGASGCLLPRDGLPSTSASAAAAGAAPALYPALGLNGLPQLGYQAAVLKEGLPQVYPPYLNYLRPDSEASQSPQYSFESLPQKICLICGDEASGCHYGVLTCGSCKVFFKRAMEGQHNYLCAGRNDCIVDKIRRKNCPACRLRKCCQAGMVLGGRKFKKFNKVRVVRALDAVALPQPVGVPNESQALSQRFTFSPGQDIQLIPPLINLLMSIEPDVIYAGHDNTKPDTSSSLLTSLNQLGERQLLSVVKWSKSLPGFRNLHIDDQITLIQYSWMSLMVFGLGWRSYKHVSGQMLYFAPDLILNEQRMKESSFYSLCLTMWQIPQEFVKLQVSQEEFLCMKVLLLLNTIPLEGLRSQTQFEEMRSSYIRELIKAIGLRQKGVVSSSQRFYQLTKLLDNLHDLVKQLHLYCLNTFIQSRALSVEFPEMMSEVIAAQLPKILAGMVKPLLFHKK

[11] = biological target: Histamine H3 receptor (Homo sapiens) (UniProt Q9Y5N1); conditions: Compound concentration 10.0 uM; remark: listed apart in the source

Chain of 5-hydroxytryptamine receptor 5A (Homo sapiens) (P47898 whole entry): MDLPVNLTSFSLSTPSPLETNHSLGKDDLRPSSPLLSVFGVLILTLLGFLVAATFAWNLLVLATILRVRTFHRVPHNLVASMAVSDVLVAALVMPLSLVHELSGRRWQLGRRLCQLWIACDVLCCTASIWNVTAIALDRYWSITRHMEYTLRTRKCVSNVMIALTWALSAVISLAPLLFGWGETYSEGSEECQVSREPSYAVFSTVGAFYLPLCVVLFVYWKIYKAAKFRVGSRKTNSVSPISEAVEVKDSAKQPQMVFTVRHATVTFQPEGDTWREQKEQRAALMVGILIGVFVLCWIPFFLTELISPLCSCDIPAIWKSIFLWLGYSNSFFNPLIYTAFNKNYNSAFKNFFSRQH
Chain of Sodium-dependent dopamine transporter (Q01959 whole entry): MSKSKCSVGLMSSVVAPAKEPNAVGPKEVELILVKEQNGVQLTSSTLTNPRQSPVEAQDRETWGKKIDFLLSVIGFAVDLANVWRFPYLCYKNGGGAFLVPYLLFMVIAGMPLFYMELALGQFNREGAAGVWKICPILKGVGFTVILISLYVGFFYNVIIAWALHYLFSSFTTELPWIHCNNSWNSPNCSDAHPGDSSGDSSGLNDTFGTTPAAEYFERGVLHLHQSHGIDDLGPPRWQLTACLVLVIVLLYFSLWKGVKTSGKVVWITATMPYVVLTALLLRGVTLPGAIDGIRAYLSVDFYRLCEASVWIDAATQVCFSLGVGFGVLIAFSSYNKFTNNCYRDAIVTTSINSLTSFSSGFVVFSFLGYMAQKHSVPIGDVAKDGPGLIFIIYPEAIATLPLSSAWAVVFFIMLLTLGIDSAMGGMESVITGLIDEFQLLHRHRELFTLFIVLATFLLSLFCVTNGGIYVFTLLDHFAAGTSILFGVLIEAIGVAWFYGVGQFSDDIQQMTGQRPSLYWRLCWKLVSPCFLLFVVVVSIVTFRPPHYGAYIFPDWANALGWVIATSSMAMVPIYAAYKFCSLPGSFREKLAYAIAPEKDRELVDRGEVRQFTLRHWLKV

Row | inhibition [11] [%] | SMILES | inhibition [1] [%] | inhibition [2] [%] | inhibition [3] [%] | inhibition [4] [%] | inhibition [5] [%] | inhibition [6] [%] | inhibition [7] [%] | inhibition [8] [%] | inhibition [9] [%] | inhibition [10] [%]
1 |  | O[C@]1(C(F)(F)F)CCCC[C@H]1Nc1ccc(F)cc1 [BAY-390] | -7.74 | 56.5 | 15.6 | 18 | -4 | -2 | 4 | -7 | 21 | 65
2 | -2.34 | COc1cc(N[C@@H]2CCCC[C@]2(O)C(F)(F)F)ccc1F [BAY-9897] |  |  |  |  |  |  |  |  |  | 
